We go through 25 compounds from patent US9926281B2 (priority 2014, dated 2018).

Test [1] concerns the target T1, human ADAMTS-5 (Homo sapiens (Human), UniProt Q9UNA0). The note with it: read-out: hADAMTS-5 potency IC50.
Another test concerns the target human MMP13 (Homo sapiens (Human), UniProt P45452). The note with it: read-out: hMMP-13 potency IC50.
A further test concerns the target rnADAMTS-5 (1-564-6H) (Rattus norvegicus, UniProt Q6TY19). The note with it: read-out: Rat ADAMTS-5 potency IC50.
The target in the next test is human TACE (Homo sapiens (Human), UniProt P78536). The note with it: read-out: TACE potency IC50.
For test [2], the target named is T1, human ADAMTS-5. The note with it: read-out: hADAMTS-5 potency IC50. This is another data set of the same source.
Protocol: Finally, the fluorescence is read on the Envision (Perkin Elmer) after an incubation of 90 min at 37° C.

Molecules are shown by their SMILES. Where two headings read alike, the source gives them in different places. Bounds are passed on as bounds.

human TACE, sequence (P78536 whole entry, looked up, change not shown): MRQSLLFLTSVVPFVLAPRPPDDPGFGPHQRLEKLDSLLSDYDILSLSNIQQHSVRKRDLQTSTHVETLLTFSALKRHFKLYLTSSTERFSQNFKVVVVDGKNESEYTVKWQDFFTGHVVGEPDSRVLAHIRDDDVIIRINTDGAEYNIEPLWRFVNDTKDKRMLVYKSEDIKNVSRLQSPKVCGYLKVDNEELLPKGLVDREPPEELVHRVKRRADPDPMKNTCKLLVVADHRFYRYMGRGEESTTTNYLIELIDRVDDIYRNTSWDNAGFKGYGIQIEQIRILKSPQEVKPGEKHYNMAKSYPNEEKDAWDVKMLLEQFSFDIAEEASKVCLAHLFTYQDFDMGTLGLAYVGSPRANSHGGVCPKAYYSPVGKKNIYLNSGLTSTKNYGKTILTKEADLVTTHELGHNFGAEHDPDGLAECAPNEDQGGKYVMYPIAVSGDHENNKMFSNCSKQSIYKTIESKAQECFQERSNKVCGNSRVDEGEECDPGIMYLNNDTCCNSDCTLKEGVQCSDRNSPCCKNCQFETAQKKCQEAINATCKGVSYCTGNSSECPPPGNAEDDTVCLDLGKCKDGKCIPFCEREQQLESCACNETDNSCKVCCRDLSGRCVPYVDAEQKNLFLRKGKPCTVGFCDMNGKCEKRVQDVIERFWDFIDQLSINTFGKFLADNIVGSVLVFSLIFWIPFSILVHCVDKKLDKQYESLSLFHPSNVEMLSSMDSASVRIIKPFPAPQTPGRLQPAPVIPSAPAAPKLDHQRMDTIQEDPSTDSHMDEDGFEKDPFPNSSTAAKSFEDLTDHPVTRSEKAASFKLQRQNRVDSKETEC
T1 sequence (Q9UNA0 262-930): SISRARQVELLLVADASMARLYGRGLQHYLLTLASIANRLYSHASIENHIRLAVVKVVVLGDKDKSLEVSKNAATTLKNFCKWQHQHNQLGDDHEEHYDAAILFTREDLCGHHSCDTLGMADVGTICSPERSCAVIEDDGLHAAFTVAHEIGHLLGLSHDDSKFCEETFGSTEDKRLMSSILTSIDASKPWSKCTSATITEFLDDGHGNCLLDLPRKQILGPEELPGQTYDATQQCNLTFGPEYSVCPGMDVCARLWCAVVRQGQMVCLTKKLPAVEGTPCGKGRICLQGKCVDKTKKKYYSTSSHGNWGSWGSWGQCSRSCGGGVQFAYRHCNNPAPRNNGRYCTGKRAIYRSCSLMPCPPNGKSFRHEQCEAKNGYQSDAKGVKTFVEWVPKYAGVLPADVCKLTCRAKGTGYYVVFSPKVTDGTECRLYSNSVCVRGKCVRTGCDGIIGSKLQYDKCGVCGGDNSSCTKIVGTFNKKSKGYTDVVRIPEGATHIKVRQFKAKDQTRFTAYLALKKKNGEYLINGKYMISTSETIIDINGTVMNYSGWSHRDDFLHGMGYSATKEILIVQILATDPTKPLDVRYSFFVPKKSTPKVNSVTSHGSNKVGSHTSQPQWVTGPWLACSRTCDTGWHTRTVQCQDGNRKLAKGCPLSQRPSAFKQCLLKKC
Protocol for human MMP13: Human MMP13 is preactivated by incubated the enzyme in the same buffer complemented with 1 mM freshly prepared p-Aminophenylmercuric acetate (AMPA) for 1 hour at 37° C.

As usually defined, the IC50 is the concentration that gives 50% inhibition. For the compound `Cc1cc(Cl)ccc1N1CCN(C(=O)CCC2(C)NC(=O)NC2=O)CC1` (stereo not shown) [compound 17, 5-[3-[4-(4-chloro-2-methyl-phenyl)piperazin-1-yl]-3-oxo-propyl]-5-methyl-imidazolidine-2,4-dione], the IC50 at human ADAMTS-5 [1] is 2840 nM; on human MMP13, more than 20000 nM; on rnADAMTS-5 (1-564-6H), more than 3940 nM; on human TACE it was more than 4000 nM.
Consider `CC1(CCC(=O)N2CCN(c3ccccc3Cl)CC2)NC(=O)NC1=O` (stereo not shown) [compound 19, 5-[3-[4-(2-chlorophenyl)piperazin-1-yl]-3-oxo-propyl]-5-methyl-imidazolidine-2,4-dione], for which the IC50 at human ADAMTS-5 [1], at human ADAMTS-5 [2] and on rnADAMTS-5 (1-564-6H) was more than 4000 nM throughout.
Regarding `Cc1ccccc1N1CCN(C(=O)CCC2(C3CC3)NC(=O)NC2=O)CC1` (stereo not shown) [compound 35, 5-cyclopropyl-5-[3-[4-(o-tolyl)piperazin-1-yl]-3-oxo-propyl]imidazolidine-2,4-dione], the IC50 at human ADAMTS-5 [1] is 99 nM; on human MMP13, more than 20000 nM; at rnADAMTS-5 (1-564-6H) it was 103 nM; on human TACE it was more than 4000 nM.
Take `CC(C)C1(CCC(=O)N2CCN(c3cc(Cl)cc(Cl)c3)CC2)NC(=O)NC1=O` (stereo not shown) [compound 54, 5-[3-[4-(3,5-dichlorophenyl)piperazin-1-yl]-3-oxo-propyl]-5-isopropyl-imidazolidine-2,4-dione]: the IC50 at human ADAMTS-5 [1] was 61 nM; at human MMP13 it was more than 20000 nM; on rnADAMTS-5 (1-564-6H) it was 91 nM; at human TACE it was 2270 nM.
As for `Cc1cccc(N2CCN(C(=O)CCC3(C4CC4)NC(=O)NC3=O)CC2)c1C` (stereo not shown) [compound 57, 5-cyclopropyl-5-[3-[4-(2,3-dimethylphenyl)piperazin-1-yl]-3-oxo-propyl]imidazolidine-2,4-dione], the IC50 on human ADAMTS-5 [1] is 93 nM; at rnADAMTS-5 (1-564-6H), 117 nM; at human TACE it was more than 12000 nM.
For the compound `Cc1ccccc1N1CCN(C(=O)CCC2(c3cccnc3)NC(=O)NC2=O)CC1` (stereo not shown) [compound 64, 5-[3-[4-(o-tolyl)piperazin-1-yl]-3-oxo-propyl]-5-(3-pyridyl)imidazolidine-2,4-dine], the IC50 was 125 nM on human ADAMTS-5 [1], more than 20000 nM at human MMP13, 165 nM at rnADAMTS-5 (1-564-6H) and 3140 nM at human TACE.
For `Cc1ccc(Cl)cc1N1CCN(C(=O)CCC2(c3ccccn3)NC(=O)NC2=O)CC1` (stereo not shown) [compound 65, 5-[3-[4-(5-chloro-2-methyl-phenyl)piperazin-1-yl]-3-oxo-propyl]-5-(2-pyridyl)imidazolidine-2,4-dione] the same measures were 50 nM, more than 20000 nM, 65 nM and 56 nM.
As to `CC1(CCC(=O)N2CCN(c3ccc(F)cc3)CC2)NC(=O)NC1=O` (stereo not shown) [compound 66, 5-[3-[4-(4-fluorophenyl)piperazin-1-yl]-3-oxo-propyl]-5-methyl-imidazolidine-2,4-dione], the IC50 on human ADAMTS-5 [1] is 1310 nM; on human MMP13, more than 20000 nM; at rnADAMTS-5 (1-564-6H) it was 1370 nM; at human TACE it was more than 20000 nM.
On to `O=C1NC(=O)C(CCC(=O)N2CCN(c3cccc(Cl)c3)CC2)(C2CCC2)N1` (stereo not shown) [compound 70, 5-[3-[4-(3-chlorophenyl)piperazin-1-yl]-3-oxo-propyl]-5-cyclobutyl-imidazolidine-2,4-dione], for which the IC50 at human ADAMTS-5 [1] is 253 nM; at human MMP13, more than 4000 nM; at rnADAMTS-5 (1-564-6H) it was 205 nM; at human TACE, more than 20000 nM.
On to `O=C1NC(=O)C(CCC(=O)N2CCN(c3cccc(Cl)c3)CC2)(c2ccc(Cl)cc2)N1` (stereo not shown) [compound 74, 5-(4-chlorophenyl)-5-[3-[4-(3-chlorophenyl)piperazin-1-yl]-3-oxo-propyl]imidazolidine-2,4-dione], for which the values for the IC50 at human ADAMTS-5 [1], at human MMP13 and at rnADAMTS-5 (1-564-6H) were 89 nM, 2660 nM and 106 nM, respectively.
For `Cc1ccc(C2(CCC(=O)N3CCN(c4cccc(Cl)c4)CC3)NC(=O)NC2=O)cc1` (stereo not shown) [compound 76, 5-[3-[4-(3-chlorophenyl)piperazin-1-yl]-3-oxo-propyl]-5-(p-toy)imidazolidine-2,4-dione], the IC50 is 91 nM on human ADAMTS-5 [1], 2060 nM at human MMP13, 102 nM at rnADAMTS-5 (1-564-6H) and 1780 nM at human TACE.
Turning to `COc1ccc(C2(CCC(=O)N3CCN(c4cccc(Cl)c4)CC3)NC(=O)NC2=O)cc1` (stereo not shown) [compound 78, 5-[3-[4-(3-chlorophenyl)piperazin-1-yl]-3-oxo-propyl]-5-(4-methoxyphenyl)imidazolidine-2,4-dione], the IC50 on human ADAMTS-5 [1] came out at 79 nM; at human MMP13, 2100 nM; on rnADAMTS-5 (1-564-6H), 96 nM; at human TACE, 2660 nM.
For `COc1ccc(C2(CCC(=O)N3CCN(c4cc(Cl)ccc4C)CC3)NC(=O)NC2=O)cc1` (stereo not shown) [compound 79, 5-[3-[4-(5-chloro-2-methyl-phenyl)piperazin-1-yl]-3-oxo-propyl]-5-(4-methoxyphenyl)imidazolidine-2,4-dione] the same measures were 53 nM, more than 20000 nM, 53 nM and 277 nM.
For `CN(C)CCOc1ccc(C2(CCC(=O)N3CCN(c4cccc(Cl)c4)CC3)NC(=O)NC2=O)cc1` (stereo not shown) [compound 80, 5-[3-[4-(3-chlorophenyl)piperazin-1-yl]-3-oxo-propyl]-5-[4-(2-dimethylaminoethyloxy)phenyl]imidazolidine-2,4-dione] the same measures were 257 nM, 3790 nM, 429 nM and more than 20000 nM.
As to `CC1(CCC(=O)N2CCN(c3cncc(Cl)c3)CC2)NC(=O)NC1=O` (stereo not shown) [compound 85, 5-[3-[4-(5-chloro-3-pyridyl)piperazin-1-yl]-3-oxo-propyl]-5-methyl-imidazolidine-2,4-dione], the IC50 on human ADAMTS-5 [1] was 1270 nM; on human MMP13, more than 20000 nM; on rnADAMTS-5 (1-564-6H), 1110 nM; on human TACE, more than 4000 nM.
For `CC1(CCC(=O)N2CCN(c3cncc(Br)c3)CC2)NC(=O)NC1=O` (stereo not shown) [compound 86, 5-[3-[4-(5-bromo-3-pyridyl)piperazin-1-yl]-3-oxo-propyl]-5-methyl-imidazolidine-2,4-dione] the same measures were 1700 nM, more than 20000 nM, 1790 nM and more than 4000 nM.
The like results for `Cc1ccc(C)c(N2CCN(C(=O)CCC3(c4ccccn4)NC(=O)NC3=O)CC2)c1` (stereo not shown) [compound 87, 5-[3-[4-(2,5-dimethylphenyl)piperazin-1-yl]-3-oxo-propyl]-5-(2-pyridyl)imidazolidine-2,4-dione] were, in that order, 137 nM, more than 20000 nM, 113 nM and 120 nM.
Regarding `Cc1ccc(C)c(N2CCN(C(=O)CCC3(c4cccnc4)NC(=O)NC3=O)CC2)c1` (stereo not shown) [compound 88, 5-[3-[4-(2,5-dimethylphenyl)piperazin-1-yl]-3-oxo-propyl]-5-(3-pyridyl)imidazolidine-2,4-dione], the IC50 was 119 nM on human ADAMTS-5 [1], more than 20000 nM at human MMP13, 119 nM at rnADAMTS-5 (1-564-6H) and 211 nM at human TACE.
As to `O=C1NC(=O)C(CCC(=O)N2CCN(c3ccc(F)c(F)c3)CC2)(c2cccnc2)N1` (stereo not shown) [compound 90, 5-[3-[4-(3,4-difluorophenyl)piperazin-1-yl]-3-oxo-propyl]-5-(3-pyridyl)imidazolidine-2,4-dione], the IC50 at human ADAMTS-5 [1] is 85 nM; at human MMP13, 1210 nM; at rnADAMTS-5 (1-564-6H) it was 70 nM; at human TACE, more than 4000 nM.
With `O=C1NC(=O)C(CCC(=O)N2CCN(c3ccc(F)c(Cl)c3)CC2)(c2cccnc2)N1` (stereo not shown) [compound 91, 5-[3-[4-(3-chloro-4-fluoro-phenyl)piperazin-1-yl]-3-oxo-propyl]-5-(3-pyridyl)imidazolidine-2,4-dione], the IC50 at human ADAMTS-5 [1] was 95 nM; on human MMP13, 1680 nM; on rnADAMTS-5 (1-564-6H), 69 nM; at human TACE it was more than 4000 nM.
As for `Cc1ccc(F)cc1N1CCN(C(=O)CCC2(c3cccnc3)NC(=O)NC2=O)CC1` (stereo not shown) [compound 92, 5-[3-[4-(5-fluoro-2-methyl-phenyl)piperazin-1-yl]-3-oxo-propyl]-5-(3-pyridyl)imidazolidine-2,4-dione], the half-inhibitory concentration (IC50) is 63 nM at human ADAMTS-5 [1], more than 20000 nM on human MMP13, 64 nM at rnADAMTS-5 (1-564-6H) and 1050 nM at human TACE.
For `Cc1cc(Cl)c(F)cc1N1CCN(C(=O)CCC2(C)NC(=O)NC2=O)CC1` (stereo not shown) [compound 93, 5-[3-[4-(4-chloro-5-fluoro-2-methyl-phenyl)piperazin-1-yl]-3-oxo-propyl]-5-methyl-imidazolidine-2,4-dione] the same measures were more than 4080 nM, more than 20000 nM, more than 4000 nM and more than 3530 nM.
In the case of `Cc1cc(F)c(F)cc1N1CCN(C(=O)CCC2(C)NC(=O)NC2=O)CC1` (stereo not shown) [compound 94, 5-[3-[4-(4,5-difluoro-2-methyl-phenyl)piperazin-1-yl]-3-oxo-propyl]-5-methyl-imidazolidine-2,4-dione], the IC50 was 2130 nM at human ADAMTS-5 [1], more than 20000 nM on human MMP13, 3020 nM on rnADAMTS-5 (1-564-6H) and more than 4000 nM on human TACE.
On to `O=C1NC(=O)C(CCC(=O)N2CCN(c3ccc(F)c(F)c3)CC2)(c2ccccn2)N1` (stereo not shown) [compound 95, 5-[3-[4-(3,4-difluorophenyl)piperazin-1-yl]-3-oxo-propyl]-5-(2-pyridyl)imidazolidine-2,4-dione], for which the IC50 is 48 nM on human ADAMTS-5 [1], 2200 nM at human MMP13, 40 nM at rnADAMTS-5 (1-564-6H) and more than 4000 nM on human TACE.
The like results for `O=C1NC(=O)C(CCC(=O)N2CCN(c3ccc(F)c(Cl)c3)CC2)(c2ccccn2)N1` (stereo not shown) [compound 96, 5-[3-[4-(3-chloro-4-fluoro-phenyl)piperazin-1-yl]-3-oxo-propyl]-5-(2-pyridyl)imidazolidine-2,4-dione] were, in that order, 49 nM, 1060 nM, 57 nM and 3590 nM.
